Data set [1] concerns mouse-killing behavior of olfactory bulb-ablated rats. The conditions noted are these: U.S. Pat. No. 4,237,135 and U.K. Pat. No. 2,017,698; cited from earlier work.
For data set [2] the following is noted: U.S. Pat. No. 4,237,135 and U.K. Pat. No. 2,017,698; cited from earlier work.
Data set [3] in a line: Conversion after oral administration. Conditions: orally administered. In kind it is in vivo.
Data set [4] deals with brain noradrenaline turnover. The conditions noted are these: U.S. Pat. No. 4,237,135 and U.K. Pat. No. 2,017,698; cited from earlier work.
For data set [5] the following is noted: U.S. Pat. No. 4,237,135 and U.K. Pat. No. 2,017,698; cited from earlier work. The source holds these as a separate data set.
For data set [6] the following is noted: U.S. Pat. No. 4,237,135 and U.K. Pat. No. 2,017,698; cited from earlier work. This is another data set of the same source.
The test system of data set [7] is ulceration induced by exposure to stress (restraint and water immersion). The experiment in a line: Effect on the ulceration induced by exposure to stress (restraint and water immersion). In kind it is in vivo, male Wistar strain rats. The conditions noted are these: ulcer index = sum of length (mm) of lesions. On the procedure:
[I] Effect on the ulceration induced by exposure to stress (restraint and water immersion): Male Wistar strain rats (weighing, about 200 g) were placed in a stress cage which served to immobilize the animals therein and then immersed in a water bath of 23° C. to the height of xiphoid of the animals according to the method of Takagi et al. [cf. Takagi, K. and Okabe, S., Japan. J. Pharmacol., 18, 9 (1968)]. After 20 hours, the animals were sacrificed and the stomach was removed. The stomach was inflated with 13 ml of saline and placed in 5% formalin solution for 5 minutes. After washing with saline, the stomach was cut open along the greater curvature and the length (mm) of each lesion in the glandular portion was measured using a dissecting microscope (×12). The sum of the length (mm) of each lesions in a stomach was indicated as an ulcer index. In case of reference experiment using butylscopolamine bromide, a photograph of the mucosal surface of stomach was taken after the stomach was treated in the same manner as described above. The photograph was magnified by nine times, and the sum of the area (mm^2) of each lesions in a stomach was indicated as an ulcer index. The ulcer index in drug treated groups was compared with that in control group, and thereby, inhibitory percentage was calculated and then ED50 value, i.e., the dose required for 50% inhibition of the ulcer index, was determined by the usual graphic method. Drugs to be tested were suspended in 0.5% tragacanth solution and administered orally 30 minutes before the immersion. In the control group, a vehicle (0.5% tragacanth solution) was administered.

In another data set the test system is pupil size. The experiment in a line: Mydriatic action in rats. It is filed as in vivo, male Wistar strain rats. The conditions noted are these: for Percent mydriasis: one hour after administration, 3 mm dilation = 100 percent. From the text: [IV] Mydriatic action in rats:
Male Wistar strain rats (weighing, 150-200 g) were used. Pupil size of the animals was twice measured microscopically just before and one hour after administration of drugs at a distance of 30 cm from the source of a constant light (30 W fluorescent light) according to the method of Pulewka [cf. Arch. exp. Path. U. Pharmakol., 168, 307 (1932)]. Based on the change between the first measured pupil size and the second measured pupil size, mydriasis percentage was calculated provided that mydriasis percentage is supposed to be 100 percent in case of 3 mm dilation of pupil size in diameter. Drugs to be tested were suspended in 0.5% tragacanth solution and administered. In the control group, a vehicle (0.5% tragacanth solution) was administered.

Data set [8] can be described thus: Toxicological study, LD50 rat. Conditions: in vivo, po, Rat (SD strain). How it is done: (§1) Further, the toxicological study was conducted according to the conventional method on Compound B. The results are shown in Table 5.
Data set [9] is described as follows: Toxicological study, LD50 mouse. Conditions: in vivo, po, Mouse (ICR strain). On the procedure: as §1
The subject of data set [10] is ulceration induced by pylorus-ligation. The experiment in a line: Effect on the ulceration induced by pylorus-ligation in rats. In kind it is in vivo, male Wistar strain rats. How it is done:
[II] Effect on the ulceration induced by pylorus-ligation in rats: Male Wistar strain rats (weighing about 190 g) were fasted for 48 hours before experiment. The pylorus of each rat was ligated under ether anaesthesia according to the method of Shay et al. [cf. Shay, H., et al., Gastroenterology, 5, 43-61 (1945)]. Each of the animals was then allowed to stand abstained from food and water in a cage. After 18 hours, the animals were sacrificed under ether anaesthesia, and the stomachs were removed and cut open along the greater curvature. […] 4: marked ulcers more than two 5: perforated ulcer The ulcer index in drug treated groups was compared to that in the control group, and thereby, the inhibitory percentage was calculated and then ED50, i.e. the dose required for 50% inhibition of ulcer index, was determined by the usual graphic method. Drugs to be tested were suspended in 0.5% tragacanth solution and administered 30 minutes before the ligation. In the control group, a vehicle (0.5% tragacanth solution) was administered.

The next data set concerns gastric secretion. The experiment in a line: Effect on gastric secretion in rats (pylorus ligation, total acid content). In kind it is in vivo, male Wistar strain rats. How it is done: [III] Effect on gastric secretion in rats: Male Wistar strain rats (weighing, about 200 g) were fasted for 24 hours before experiment. The pylorus was ligated under ether anaesthesia. Four hours after the ligation, the stomach was removed under ether anaesthesia. The gastric content was collected and centrifuged, and the secretory volume, pH and acid content of the supernatant were measured. The acid content was measured by titrating to pH 7.0 with 0.02N NaOH using pH meter (Hitachi Horiba, M-5). The total acid content of the drug treated groups was compared with that of the control group, and thereby, the reduction percentage of acid content was calculated and then ED50, i.e. the dose required for 50% reduction of acid content, was determined by the usual graphic method. Drugs to be tested were suspended in 0.5% tragacanth solution and administered orally 30 minutes before the ligation. In the control group, a vehicle (0.5% tragacanth solution) was administered.

Each structure is given as a SMILES string.

A word on the ED50: it is the midpoint of the dose-response relation. As a reminder, the LD50 is the dose at which mortality reaches 50%. Lower therefore signals a more toxic substance.

As for `CCN1CCN(c2cc(-c3ccccc3)c3ccccc3n2)CC1` [2-(4-ethyl-1-piperazinyl)-4-phenylquinoline], the “suppression of mouse-killing behavior of olfactory bulb-ablated rats” value in data set [1] is recorded as “suppression of mouse-killing behavior of olfactory bulb-ablated rats”. Also, the anti-tremorine activity result in data set [2] was “has also anti-tremorine activity”. Also, the “conversion on oral administration” value in data set [3] is reported as “partially converted into 2-(1-piperazinyl)-4-phenylquinoline”. The “inhibition of brain noradrenaline turnover” value in [4] is “inhibition of brain noradrenaline turnover”. Also, the anti-reserpine activity result in data set [5] is reported as “showed anti-reserpine activity”. Moreover, the anti-tetrabenazine activity entry in [6] is given as “anti-tetrabenazine activity”.
As for `CCN1CCN(c2cc(-c3ccccc3)c3ccccc3n2)CC1.O=C(O)/C=C\C(=O)O.O=C(O)/C=C\C(=O)O` [Compound B, 2-(4-ethyl-1-piperazinyl)-4-phenylquinoline dimaleate], the “Ulcer index Inhibitory %” value in [7] (1 mg/kg p.o.) was 44.5%; in data set [7] (2 mg/kg p.o.) it was 66.6%; in data set [7] (5 mg/kg p.o.) it was 90.1%; in data set [10] (5 mg/kg p.o.) it was 0%; in [10] (10 mg/kg p.o.) it was 28.6%; in [10] (20 mg/kg p.o.) it was 57.1%. The “Ulcer index Inhibitory %” value in [10] (50 mg/kg p.o.) worked out at 78.6%. The ED50 in [7] (Rattus norvegicus, po, 30 minutes before immersion, rats, read-out: ED50 (dose required for 50% inhibition of the ulcer index)) came out at 1.2 mg/kg; in data set [10] (Rattus norvegicus, po, 30 minutes before ligation, rats, 18 hours, ulcer index 0 to 5, read-out: ED50 (dose required for 50% inhibition of ulcer index)), 19 mg/kg; in the data set on gastric secretion (Rattus norvegicus, po, 30 minutes before ligation, rats, 4 hours after ligation, read-out: ED50 (dose required for 50% reduction of acid content)), 2.8 mg/kg. The Percent mydriasis was 0% in the data set on pupil size (5 mg/kg p.o.); 2.7% with pupil size (10 mg/kg p.o.); 4.7% with pupil size (20 mg/kg p.o.); 2.0% in the data set on pupil size (50 mg/kg p.o.); 2.7% in the data set with pupil size (100 mg/kg p.o.). In addition, the “mydriatic action (in words)” value in the data set on pupil size (rats, up to 100 mg/kg) is on record as “did entirely not show any mydriatic action even in a dose of 100 mg/kg”. Moreover, the values for the median lethal dose (LD50) in data set [8] and in [9] were ~3600 mg/kg and ~1200 mg/kg, respectively. The “Total acid content Reduction %” value worked out at 27.8% with gastric secretion (0.5 mg/kg p.o.), 24.0% with gastric secretion (1 mg/kg p.o.), 47.8% in the data set with gastric secretion (2 mg/kg p.o.) and 60.2% in the data set on gastric secretion (5 mg/kg p.o.).

These data come from patent publication US4677107A, “Anti-peptic ulcer agent” (Dainippon Pharmaceutical Co., Ltd., priority 1983, dated 1987).
